Results published in patent US7108865B2, “Controlled-release dosage forms of azithromycin” (Pfizer Inc, priority 1994, dated 2006).

Settings: pH 7
Description: A third class of azithromycin sustained-release dosage forms includes the osmotic delivery devices or “osmotic pumps” as they are known in the art. Osmotic pumps comprise a core containing an osmotically effective composition surrounded by a semipermeable membrane. The term “semipermeable” in this context means that water can pass through the membrane, but solutes dissolved in water cannot. In use, when placed in an aqueous environment, the device imbibes water due to the osmotic activity of the core composition. […] The osmotically effective composition includes water-soluble species, which generate a colloidal osmotic pressure, and water-swellable polymers.

solubility | osmotic pressure corresponding to the solubility | Compound
much lower | – | CC[C@H]1OC(=O)[C@H](C)[C@@H](O[C@H]2C[C@@](C)(OC)[C@@H](O)[C@H](C)O2)[C@H](C)[C@@H](O[C@@H]2O[C@H](C)C[C@H](N(C)C)[C@H]2O)[C@](C)(O)C[C@@H](C)CN(C)[C@H](C)[C@@H](O)[C@]1(C)O [azithromycin dihydrate]
about 100 mg/ml | about 3 atmospheres | Azithromycin fumarate
